Test results from ChEMBL document CHEMBL3885861, “Open TG-GATES”.

Species on record: Rattus norvegicus
Assay: Open TG-GATES - Regimen: Single
Format: toxicity, organism-based, Sprague-Dawley
Parameters: regimen Single, gender Male, age 6 weeks
Settings: in vivo, po, 300 mg/kg, route gavage, dose level High; for APTT / Bas / Eos / Fbg / Hb / Ht / Lym / MCH / MCHC / MCV / Mono / Neu / PT / Plat / RBC / Ret / WBC: tissue Blood; for KIDNEY_L / KIDNEY_R / KIDNEY_TOTAL: tissue Kidney; for LIVER: tissue Liver; for A/G / ALP / ALT / AST / BUN / CRE / Ca / Cl / DBIL / GLC / IP / K / LDH / Na / PL / RALB / TBIL / TC / TG / TP / gamma-GTP: tissue Plasma

## Brc1ccccc1 [BROMOBENZENE]
3 h
  TERMINAL_BW: 190.3 g
  APTT: 15.8 s
  Bas: 0%
  Eos: 0.8%
  Fbg: 289.8 mg/dL
  Hb: 14.1 g/dL
  Ht: 41.4%
  Lym: 76.6%
  MCH: 21.7 pg
  MCHC: 33.9%
  MCV: 64 fL
  Mono: 3.2%
  Neu: 19.2%
  PT: 12 s
  Plat: 115.3 x10_4/uL
  RBC: 648.4 x10_4/ul
  Ret: 9.4%
  WBC: 67.3 x10_2/uL
  KIDNEY_L: 0.8 g
  KIDNEY_R: 0.8 g
  KIDNEY_TOTAL: 1.7 g
  LIVER: 7.6 g
  A/G: 0.9
  ALP: 1696 IU/L
  ALT: 48.2 IU/L
  AST: 81.6 IU/L
  BUN: 8 mg/dL
  CRE: 0.1 mg/dL
  Ca: 11 mg/dL
  Cl: 105.2 meq/L
  DBIL: 0.01 mg/dL
  GLC: 191.6 mg/dL
  IP: 10.9 mg/dL
  K: 3.6 meq/L
  LDH: 78.2 IU/L
  Na: 141.6 meq/L
  PL: 152.2 mg/dL
  RALB: 2.7 g/dL
  TBIL: 0.044 mg/dL
  TC: 82.8 mg/dL
  TG: 55.8 mg/dL
  TP: 5.7 g/dL
  gamma-GTP: 1.4 IU/L
6 h
  TERMINAL_BW: 192 g
  APTT: 15.8 s
  Bas: 0%
  Eos: 0.6%
  Fbg: 293 mg/dL
  Hb: 13.9 g/dL
  Ht: 41.8%
  Lym: 73%
  MCH: 21 pg
  MCHC: 33.3%
  MCV: 63 fL
  Mono: 2.2%
  Neu: 23.8%
  PT: 12.3 s
  Plat: 107.3 x10_4/uL
  RBC: 663.8 x10_4/ul
  Ret: 9.1%
  WBC: 56.8 x10_2/uL
  KIDNEY_L: 0.8 g
  KIDNEY_R: 0.8 g
  KIDNEY_TOTAL: 1.6 g
  LIVER: 7.4 g
  A/G: 0.9
  ALP: 1585.6 IU/L
  ALT: 40.6 IU/L
  AST: 72.2 IU/L
  BUN: 9.2 mg/dL
  CRE: 0.1 mg/dL
  Ca: 10.9 mg/dL
  Cl: 103.4 meq/L
  DBIL: 0.008 mg/dL
  GLC: 207.6 mg/dL
  IP: 11.1 mg/dL
  K: 3.8 meq/L
  LDH: 80 IU/L
  Na: 140.6 meq/L
  PL: 156.8 mg/dL
  RALB: 2.7 g/dL
  TBIL: 0.04 mg/dL
  TC: 93.2 mg/dL
  TG: 29.4 mg/dL
  TP: 5.7 g/dL
  gamma-GTP: 1.4 IU/L
9 h
  TERMINAL_BW: 190.5 g
  APTT: 16.2 s
  Bas: 0%
  Eos: 0.6%
  Fbg: 274.4 mg/dL
  Hb: 14.2 g/dL
  Ht: 41.9%
  Lym: 79%
  MCH: 21.5 pg
  MCHC: 33.9%
  MCV: 63.4 fL
  Mono: 2.4%
  Neu: 17.6%
  PT: 12.2 s
  Plat: 111.6 x10_4/uL
  RBC: 660.8 x10_4/ul
  Ret: 8.9%
  WBC: 67.7 x10_2/uL
  KIDNEY_L: 0.8 g
  KIDNEY_R: 0.8 g
  KIDNEY_TOTAL: 1.6 g
  LIVER: 6.5 g
  A/G: 0.9
  ALP: 1518.8 IU/L
  ALT: 40.8 IU/L
  AST: 75.6 IU/L
  BUN: 12 mg/dL
  CRE: 0.2 mg/dL
  Ca: 10.6 mg/dL
  Cl: 103.6 meq/L
  DBIL: 0.008 mg/dL
  GLC: 184.8 mg/dL
  IP: 11 mg/dL
  K: 3.7 meq/L
  LDH: 95.6 IU/L
  Na: 140.6 meq/L
  PL: 141.4 mg/dL
  RALB: 2.6 g/dL
  TBIL: 0.052 mg/dL
  TC: 86.6 mg/dL
  TG: 23.8 mg/dL
  TP: 5.6 g/dL
  gamma-GTP: 1.8 IU/L
24 h
  TERMINAL_BW: 185.8 g
  APTT: 18.7 s
  Bas: 0%
  Eos: 0.4%
  Fbg: 204.8 mg/dL
  Hb: 13.9 g/dL
  Ht: 40.9%
  Lym: 71.6%
  MCH: 21.5 pg
  MCHC: 34%
  MCV: 63.2 fL
  Mono: 1.8%
  Neu: 25.8%
  PT: 15.8 s
  Plat: 111.5 x10_4/uL
  RBC: 647.2 x10_4/ul
  Ret: 7.3%
  WBC: 73.2 x10_2/uL
  KIDNEY_L: 0.8 g
  KIDNEY_R: 0.8 g
  KIDNEY_TOTAL: 1.7 g
  LIVER: 8.6 g
  A/G: 0.9
  ALP: 2477 IU/L
  ALT: 113.6 IU/L
  AST: 481 IU/L
  BUN: 14.6 mg/dL
  CRE: 0.2 mg/dL
  Ca: 10.2 mg/dL
  Cl: 106.8 meq/L
  DBIL: 0.024 mg/dL
  GLC: 166.8 mg/dL
  IP: 8.3 mg/dL
  K: 4.1 meq/L
  LDH: 784.6 IU/L
  Na: 142 meq/L
  PL: 130.8 mg/dL
  RALB: 2.6 g/dL
  TBIL: 0.074 mg/dL
  TC: 85.6 mg/dL
  TG: 67.4 mg/dL
  TP: 5.5 g/dL
  gamma-GTP: 1.4 IU/L
